In ChEMBL document CHEMBL1201862, “PubChem BioAssay data set” (2004):
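Compound exposure: 48 hours, 5 concentrations, 96-well plates. GI50 = concentration required for 50% inhibition of growth.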 Activity calls are given as the source filed them. Cut-off read from the data, not from the text of the source: active = GI50 up to about 1.1 µM and inactive = higher.

How the values were obtained:
Assay in all cases: growth of human tumour cells (NCI), 48 h
A549 = system: A549
CAKI-1 = system: CAKI-1
CCRF-CEM = system: CCRF-CEM
DU-145 = system: DU-145
HT-29 = system: HT-29
M14 = system: M14
MCF7 = system: MCF7
MDA-N = system: MDA-N
Malme-3M = system: Malme-3M
NCI-H522 = system: NCI-H522
OVCAR-3 = system: OVCAR-3
PC-3 = system: PC-3
SF-268 = system: SF-268
SK-MEL-2 = system: SK-MEL-2
SNB-19 = system: SNB-19
SW-620 = system: SW-620
TK-10 = system: TK-10
UACC-257 = system: UACC-257
UO-31 = system: UO-31
SF-539 = system: SF-539

| SMILES | GI50 (A549) | GI50 (CAKI-1) | GI50 (CCRF-CEM) | GI50 (DU-145) | GI50 (HT-29) | GI50 (M14) | GI50 (MCF7) | GI50 (MDA-N) | GI50 (Malme-3M) | GI50 (NCI-H522) | GI50 (OVCAR-3) | GI50 (PC-3) | GI50 (SF-268) | GI50 (SK-MEL-2) | GI50 (SNB-19) | GI50 (SW-620) | GI50 (TK-10) | GI50 (UACC-257) | GI50 (UO-31) | GI50 (SF-539) |
| --- | --- | --- | --- | --- | --- | --- | --- | --- | --- | --- | --- | --- | --- | --- | --- | --- | --- | --- | --- | --- |
| COc1ccc2c(c1O)[C@@]13CCCC=C1[C@@H](C2)N(C)CC3 | > 100 µM (inactive) | > 100 µM (inactive) | 27.5 µM (inactive) | > 100 µM (inactive) | 32.1 µM (inactive) | 79.6 µM (inactive) | 81.5 µM (inactive) | 61.5 µM (inactive) | 1.75 µM (inactive) | 25.2 µM (inactive) | 50.7 µM (inactive) | 59.6 µM (inactive) | > 100 µM (inactive) | 36.7 µM (inactive) | > 100 µM (inactive) | 69.3 µM (inactive) | > 100 µM (inactive) | > 100 µM (inactive) | 39 µM (inactive) | – |
| COc1ccc2c(c1OC(C)=O)C1=CC(=O)CCC13CCNC3C2 (stereo unspecified) | > 100 µM (inactive) | > 100 µM (inactive) | > 100 µM (inactive) | > 100 µM (inactive) | > 100 µM (inactive) | > 100 µM (inactive) | > 100 µM (inactive) | > 100 µM (inactive) | > 100 µM (inactive) | > 100 µM (inactive) | > 100 µM (inactive) | > 100 µM (inactive) | > 100 µM (inactive) | > 100 µM (inactive) | > 100 µM (inactive) | > 100 µM (inactive) | > 100 µM (inactive) | > 100 µM (inactive) | > 100 µM (inactive) | – |
| C/C=C(/C)C(=O)O[C@H]1C[C@@H]2[C@@H](O)c3occ(C)c3C[C@]2(C)[C@@H](C)C1 | – | 18.3 µM (inactive) | 18.4 µM (inactive) | 14.8 µM (inactive) | 15.6 µM (inactive) | 15.6 µM (inactive) | 20.9 µM (inactive) | 18.7 µM (inactive) | 15.8 µM (inactive) | 14.6 µM (inactive) | 17.1 µM (inactive) | 14.4 µM (inactive) | 16 µM (inactive) | – | 16.8 µM (inactive) | 16.2 µM (inactive) | 17.6 µM (inactive) | 11.1 µM (inactive) | – | 17.5 µM (inactive) |
| COCCOC(C)C(=O)C(O)S(=O)(=O)O (stereo unspecified) | > 100 µM (inactive) | – | > 100 µM (inactive) | > 100 µM (inactive) | > 100 µM (inactive) | > 100 µM (inactive) | > 100 µM (inactive) | > 100 µM (inactive) | > 100 µM (inactive) | > 100 µM (inactive) | > 100 µM (inactive) | > 100 µM (inactive) | > 100 µM (inactive) | > 100 µM (inactive) | > 100 µM (inactive) | > 100 µM (inactive) | > 100 µM (inactive) | > 100 µM (inactive) | > 100 µM (inactive) | > 100 µM (inactive) |
| COc1cc(Nc2nnc3n2S(=O)(=O)c2cc(C)c(Cl)cc2S3)cc(OC)c1 | 6.62 µM (inactive) | 8.55 µM (inactive) | 4.29 µM (inactive) | 10.7 µM (inactive) | 12.4 µM (inactive) | 59.3 µM (inactive) | 13.6 µM (inactive) | 4.68 µM (inactive) | 2.17 µM (inactive) | 2.61 µM (inactive) | 5.19 µM (inactive) | 8.83 µM (inactive) | 11.5 µM (inactive) | – | 13.3 µM (inactive) | – | 31.4 µM (inactive) | 16.6 µM (inactive) | 11.6 µM (inactive) | 2.12 µM (inactive) |
| CC[N+](C)(CC)CCC(O)(c1ccccc1)c1ccccc1 | > 100 µM (inactive) | – | > 100 µM (inactive) | > 100 µM (inactive) | > 100 µM (inactive) | > 100 µM (inactive) | > 100 µM (inactive) | > 100 µM (inactive) | > 100 µM (inactive) | > 100 µM (inactive) | > 100 µM (inactive) | > 100 µM (inactive) | > 100 µM (inactive) | > 100 µM (inactive) | > 100 µM (inactive) | > 100 µM (inactive) | > 100 µM (inactive) | > 100 µM (inactive) | > 100 µM (inactive) | – |
| O=C1CC(CC(O)C(O)C(O)CO)CC(=O)N1 (stereo unspecified) | > 100 µM (inactive) | > 100 µM (inactive) | > 100 µM (inactive) | > 100 µM (inactive) | > 100 µM (inactive) | > 100 µM (inactive) | > 100 µM (inactive) | > 100 µM (inactive) | > 100 µM (inactive) | > 100 µM (inactive) | > 100 µM (inactive) | > 100 µM (inactive) | > 100 µM (inactive) | – | – | > 100 µM (inactive) | – | > 100 µM (inactive) | > 100 µM (inactive) | > 100 µM (inactive) |
| CC(=O)C1C(=O)C(=O)N(c2ccc(Br)cc2)C1=O (stereo unspecified) | > 100 µM (inactive) | > 100 µM (inactive) | > 100 µM (inactive) | > 100 µM (inactive) | > 100 µM (inactive) | > 100 µM (inactive) | > 100 µM (inactive) | > 100 µM (inactive) | – | > 100 µM (inactive) | > 100 µM (inactive) | > 100 µM (inactive) | > 100 µM (inactive) | > 100 µM (inactive) | > 100 µM (inactive) | > 100 µM (inactive) | > 100 µM (inactive) | > 100 µM (inactive) | > 100 µM (inactive) | > 100 µM (inactive) |
| CCOC(=O)c1cn2c(n1)sc1cccc(C)c12 | > 100 µM (inactive) | > 100 µM (inactive) | – | > 100 µM (inactive) | – | > 100 µM (inactive) | > 100 µM (inactive) | > 100 µM (inactive) | > 100 µM (inactive) | > 100 µM (inactive) | > 100 µM (inactive) | > 100 µM (inactive) | > 100 µM (inactive) | – | > 100 µM (inactive) | – | > 100 µM (inactive) | > 100 µM (inactive) | 72.8 µM (inactive) | > 100 µM (inactive) |
| COc1cc(C2SCCCCCCCCCCSC(c3ccc(O)c(OC)c3)SCCCCCCCCCCS2)ccc1O (stereo unspecified) | > 100 µM (inactive) | > 100 µM (inactive) | < 0.01 µM (active) | > 100 µM (inactive) | > 100 µM (inactive) | > 100 µM (inactive) | > 100 µM (inactive) | > 100 µM (inactive) | 58.1 µM (inactive) | > 100 µM (inactive) | – | > 100 µM (inactive) | 52.1 µM (inactive) | > 100 µM (inactive) | > 100 µM (inactive) | > 100 µM (inactive) | > 100 µM (inactive) | > 100 µM (inactive) | > 100 µM (inactive) | – |
| C=CC(C)(C)c1cc([C@@H]2COc3cc(O)ccc3C2=O)c(O)c(OC)c1OC | 15.8 µM (inactive) | – | 16.6 µM (inactive) | 14.8 µM (inactive) | 20.5 µM (inactive) | 15.5 µM (inactive) | 14.8 µM (inactive) | 7.6 µM (inactive) | 10.8 µM (inactive) | 4.25 µM (inactive) | 10.5 µM (inactive) | 12.9 µM (inactive) | 12.6 µM (inactive) | 15.9 µM (inactive) | 13.5 µM (inactive) | 31.6 µM (inactive) | 27.9 µM (inactive) | 13 µM (inactive) | 10.9 µM (inactive) | 18.8 µM (inactive) |
| CC(=O)Nc1ccc2c(c1)/C(=N/c1ccc(C(=O)O)cc1)c1ccccc1-2 | > 100 µM (inactive) | > 100 µM (inactive) | 26.4 µM (inactive) | > 100 µM (inactive) | 59.6 µM (inactive) | 99.1 µM (inactive) | 2.42 µM (inactive) | > 100 µM (inactive) | > 100 µM (inactive) | 70 µM (inactive) | 99.8 µM (inactive) | 83.6 µM (inactive) | > 100 µM (inactive) | – | 55.6 µM (inactive) | > 100 µM (inactive) | > 100 µM (inactive) | > 100 µM (inactive) | 38.3 µM (inactive) | – |
| CC(C)C[C@H](NC(=O)[C@@H](N)Cc1cccc2ccccc12)B(O)O | 0.0766 µM (active) | < 0.0164 µM (active) | – | 0.44 µM (active) | < 0.0178 µM (active) | – | < 0.0232 µM (active) | 0.182 µM (active) | 0.0224 µM (active) | 0.187 µM (active) | < 0.0149 µM (active) | 0.0667 µM (active) | – | 0.0399 µM (active) | 2.47 µM (inactive) | < 0.015 µM (active) | < 0.0182 µM (active) | 0.0311 µM (active) | 0.0331 µM (active) | 0.0143 µM (active) |
| O=C(/C=C/c1csc(-c2ccccc2)n1)NCc1ccc(C(=O)NCCc2ccccc2)cc1 | 26.7 µM (inactive) | 15.6 µM (inactive) | > 100 µM (inactive) | 88.5 µM (inactive) | 5.09 µM (inactive) | 39.8 µM (inactive) | 72.3 µM (inactive) | > 100 µM (inactive) | 24.3 µM (inactive) | 34.6 µM (inactive) | 63.8 µM (inactive) | 49.4 µM (inactive) | 5.94 µM (inactive) | 32 µM (inactive) | 11.4 µM (inactive) | 74.5 µM (inactive) | 11.7 µM (inactive) | 27.2 µM (inactive) | 48.1 µM (inactive) | – |
| CCOc1nnnc2[nH]cnc12 | > 100 µM (inactive) | > 100 µM (inactive) | – | > 100 µM (inactive) | > 100 µM (inactive) | > 100 µM (inactive) | > 100 µM (inactive) | > 100 µM (inactive) | > 100 µM (inactive) | > 100 µM (inactive) | > 100 µM (inactive) | > 100 µM (inactive) | > 100 µM (inactive) | > 100 µM (inactive) | – | > 100 µM (inactive) | > 100 µM (inactive) | > 100 µM (inactive) | > 100 µM (inactive) | > 100 µM (inactive) |
